Test system: 616215-338-R-J1-PDC complex spheroid growth, % test/control
Assay: Anticancer human tumor 616215-338-R-J1-PDC patient-derived colon adenocarcinoma cell line growth inhibition [Asc]
Details: for IC50: curve of first compound; for viability, T/C: stronger effect = lower value; active = viability on the fitted dose curve at most 10% of control; inactive = the rest
Experimental: Multicellular complex tumor spheroid response to apoptosis pathway targeting inhibitors Alrizomadlin, Pelcitoclax, and Dasminapant in combination with a variety of drugs and investigational agents in selected tumor cell lines
The MDM2 inhibitor alrizomadlin, the Bcl-2/Bcl-xL inhibitor pelcitoclax, and the IAPs inhibitor dasminapant were evaluated both individually and in combination with standard of care and investigational anticancer small molecules within a complex spheroid model of solid tumors. . Complex spheroids include a stromal component modeled by human endothelial cells (HUVEC) and fibroblasts modeled by human mesenchymal stem cells (MSCs). The concentration ranges selected for each drug and investigational agent were based upon clinically achievable concentrations if the clinical Cmax of the agent was known.
Compounds. The drugs and investigational agents: alrizomadlin (APG-115; NSC831270), pelcitoclax (APG-1252; NSC835773), dasminapant (APG-1387;NSC834197), TAK-243 (NSC785004), copanlisib (NSC809693), olaparib (NSC753686), talazoparib (NSC767125), cobimetinib (NSC 768068), eltanexor (KPT-8602, NSC 794443), abemaciclib (NSC 768073), sotorasib (NSC818433), adagrasib (NSC 831453), MRTX-1133 (NSC 836407), Iadademestat (ORY1001, NSC 806812), and RMC-4630 (NSC839698), were obtained from the NCI Developmental Therapeutics Program Chemical Repository. The FDA-approved anticancer drug set is available from the Developmental Therapeutics Program at https://dtp.cancer.gov/organization/dscb/obtaining/available plates.htm. […] The stock solutions were prepared in dimethyl sulfoxide (DMSO, Sigma-Aldrich, St. Louis, MO, cat. D2650) at 800-fold the tested concentration and stored at -70 degrees C prior to their use. All drugs and investigational agents were tested over a range starting from a high concentration at or near the clinical Cmax and decreasing in half-log increments. If the clinical Cmax for an agent had not been determined, the highest concentration tested was 10 microM.
The patient-derived cancer (PDC) cell lines include five colon adenocarcinomas: 186277-243-T-J2-PDC, 616215-338-R-J1-PDC, 439559-082-T-J2-PDC, 463943-066-T-J2-PDC, and 519858-162-T-J1-PDC; three pancreatic carcinomas: 323965-272-R-J2-PDC, 521955-158-R6-J3-PDC, and 521955-158-R2-J5-PDC; two uterine sarcomas: 327498-152-R-J2-PDC and 993429-296-R-J1-PDC; two rhabdomyosarcomas: 755483-174-R-J1-PDC and 772245-204-R-J1-PDC; two soft tissue sarcomas: 126254-015-R-J1-PDC and 494315-158-R-J1-PDC; two malignant fibrous histiocytomas: 317291-083-R-J1-PDC and 596521-263-R-J1-PDC; two breast carcinomas: 171881-019-R-J1-PDC and 885512-296-R-J2-PDC; and one ovarian carcinoma: 6556581-035-R-J-PDC were obtained from the NCI PDMR, (https://pdmr.cancer.gov). The established cell lines HSSY-2 synovial sarcoma (RRID:CVCL 8719), SYO-1 synovial sarcoma (RRID:CVCL_7146), MPNST malignant peripheral neural sheath tumor were obtained from the Sloan Kettering Institute. The following established cell lines were purchased from the American Type Culture Collection (ATCC, Manassas, VA), Sor the received from the NCI repository:, PANC-1 pancreatic carcinoma (CRL-1469, RRID:CVCL_0480), OVCAR-5 ovarian carcinoma (RRID:CVCL_1628), OVCAR-8 ovarian carcinoma (RRID:CVCL_1629), , MCF-7 breast carcinoma (CRL-12584, RRID:CVCL_0031), MDA-MB-231 breast carcinoma (CRL-12532, RRID:CVCL_0062), NCI-H1876 small cell lung carcinoma (CRL-5902, RRID:CVCL_1503), NCI-H510A small cell lung carcinoma (HTB-184, RRID:CVCL_1565), NCI-H1417 (CRL-5869, RRID:CVCL_1469), and NCI-H196 small cell lung carcinoma (CRL-5823, RRID:CVCL_1509). Dr. Peter Houghton (Greehey Children's Cancer Research Institute, University of Texas Health Science Center, San Antonio, TX) provided Rh-18 rhabdomyosarcoma (RRID:CVCL_1659). Pooled donor human umbilical vein endothelial cells (HUVEC, Lonza, cat. CC-2519) and human mesenchymal stem cells (hMSC, Lonza, cat. PT-2501) were purchased from Lonza (Walkersville, MD).
Cell Culture. […]
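Note: spheroids exposed to agents for seven days before readout.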
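Throughout, for viability, T/C: 100% = DMSO vehicle control viability.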

O=C(c1cc(Cc2n[nH]c(=O)c3ccccc23)ccc1F)N1CCN(C(=O)C2CC2)CC1 + CCN1C(C(=O)NC23CCC(C(=O)O)(CC2)CC3)C(c2cccc(Cl)c2F)C2(C(=O)Nc3cc(Cl)ccc32)C12CCCCC2
inactive: viability, T/C (second compound 0.03 µM, first compound 0.0316 µM) 101% | viability, T/C (second compound 0.03 µM, first compound 0.1 µM) 99.1% | viability, T/C (second compound 0.03 µM, first compound 0.316 µM) 99.4% | viability, T/C (second compound 0.03 µM, first compound 1 µM) 99.8% | viability, T/C (second compound 0.03 µM, first compound 3.16 µM) 94.1% | viability, T/C (second compound 0.03 µM, first compound 10 µM) 77.6% | viability, T/C (second compound 0.0949 µM, first compound 0.0316 µM) 99% | viability, T/C (second compound 0.0949 µM, first compound 0.1 µM) 100% | viability, T/C (second compound 0.0949 µM, first compound 0.316 µM) 97.8% | viability, T/C (second compound 0.0949 µM, first compound 1 µM) 92.2% | viability, T/C (second compound 0.0949 µM, first compound 3.16 µM) 81.2% | viability, T/C (second compound 0.0949 µM, first compound 10 µM) 67.5% | viability, T/C (second compound 0.3 µM, first compound 0.0316 µM) 73.3% | viability, T/C (second compound 0.3 µM, first compound 0.1 µM) 72.6% | viability, T/C (second compound 0.3 µM, first compound 0.316 µM) 78% | viability, T/C (second compound 0.3 µM, first compound 1 µM) 71.8% | viability, T/C (second compound 0.3 µM, first compound 3.16 µM) 61.4% | viability, T/C (second compound 0.3 µM, first compound 10 µM) 65.2% | viability, T/C (second compound 0.949 µM, first compound 0.0316 µM) 74.7% | viability, T/C (second compound 0.949 µM, first compound 0.1 µM) 80.8% | viability, T/C (second compound 0.949 µM, first compound 0.316 µM) 72.4% | viability, T/C (second compound 0.949 µM, first compound 1 µM) 68.5% | viability, T/C (second compound 0.949 µM, first compound 3.16 µM) 67% | viability, T/C (second compound 0.949 µM, first compound 10 µM) 55.7% | viability, T/C (second compound 3 µM, first compound 0.0316 µM) 61.4% | viability, T/C (second compound 3 µM, first compound 0.1 µM) 62.5% | viability, T/C (second compound 3 µM, first compound 0.316 µM) 60.5% | viability, T/C (second compound 3 µM, first compound 1 µM) 60.1% | viability, T/C (second compound 3 µM, first compound 3.16 µM) 51.8% | viability, T/C (second compound 3 µM, first compound 10 µM) 48.8%
> 10 µM: IC50 (second compound 0.03 µM) | IC50 (second compound 0.0949 µM) | IC50 (second compound 0.3 µM) | IC50 (second compound 0.949 µM) | IC50 (second compound 3 µM)
